# In PubChem BioAssay AID1013 (Columbia University Molecular Screening Center, 2008):
# The source made the active and inactive calls. How the calls were made is not given here.
# Assay: inhibitors of TNFa-induced VCAM1 expression, confirmation, imaging, TNFa stimulus, retest and dose response (AID 1013);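 on cell count: compound on cells 1 h before TNFa then 24 h more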
# Conditions: TNFa-stimulated cells, VCAM1 expression imaging; at 2 µM; stronger effect = higher value
row,SMILES,inhibition
1,Cc1ccc(C)c(NC(=S)NC(NC(=O)Cc2cccc3ccccc23)C(Cl)(Cl)Cl)c1 (stereo not given),75.3% (inactive)
2,CC(CCc1ccccc1)NC(=O)c1ccc(Br)o1 (stereo not given),-4.5% (inactive)
3,O=C(Cn1ncc2c(=O)oc3ccccc3c21)NCCC1=CCCCC1,-1.9% (inactive)
4,CC1Oc2ccccc2C=C1/C=C1/SC(N2CCOCC2)=NC1=O (stereo not given),-2.1% (inactive)
5,CCN1C(=O)CSC1=NC12CC3CC(CC(C3)C1)C2,-5.9% (inactive)
6,O=C(O)c1c[nH]c2ccc(S(=O)(=O)N3CCOCC3)cc12,1.4% (inactive)
7,CCOC(=O)c1ccc(NC(=O)CCNc2c(N3CCCC3)c(=O)c2=O)cc1,-10.3% (inactive)
8,COc1ccc(Cl)c(NC(=O)Nc2c(C)n(-c3ccccc3)c(=O)n2C)c1,-17.4% (inactive)
9,Cc1cc(C)n(C(=O)c2ccc(NC(=O)C3COc4ccccc4O3)cc2)n1 (stereo not given),3.2% (inactive)
10,CCOC(=O)c1ccc(N2C(=O)CC(N3CCC(O)(c4ccc(Br)cc4)CC3)C2=O)cc1 (stereo not given),-13.9% (inactive)
11,CCOc1ccc(C(=O)C(c2ccccc2)N2CCOCC2)cc1 (stereo not given),-17.7% (inactive)
12,O=C(O)c1cc2nc3c(c(C(F)(F)F)n2n1)CCc1ccccc1-3,4.4% (inactive)
13,O=C(NCc1cccs1)c1nc2c(nnn2Cc2ccccc2Cl)c(=O)[nH]1,13.8% (inactive)
14,Cc1cc(NC(=O)NC(=O)c2cccc(OC(F)(F)C(F)F)c2)n[nH]1,3.8% (inactive)
15,Cc1cccc(N(CC(=O)N/N=C/c2ccc(OCC(=O)NCc3ccco3)cc2)S(C)(=O)=O)c1C,-4.7% (inactive)
16,O=C(Nc1ncc2c(n1)CC(c1ccco1)CC2=O)c1ccc(Cl)cc1 (stereo not given),-0.3% (inactive)
17,Cc1cccnc1N(C(=O)Nc1ccccc1)C1=NCC(C)(C)S1,-11.8% (inactive)
18,O=C(COc1ccccc1-c1ccccc1)N/N=C/c1cccc2ccccc12,76.4% (inactive)
19,O=C(N/N=C/c1ccncc1)c1ccccc1,5.8% (inactive)
20,CCCc1[nH]nc2c1C(c1cccnc1)C(C#N)=C(N)O2 (stereo not given),-7.9% (inactive)
21,N=c1nc(N)nc2n1NC(c1ccc(F)cc1)=CS2,-1.2% (inactive)
22,CCn1c(SCC(=O)N2CCN(c3cccc(Cl)c3)CC2)nc2ccccc2c1=O,8.3% (inactive)
23,COC(=O)C1C(=O)C2=C(CC1C)NC(=O)CC2c1cccc(C)c1 (stereo not given),-3.9% (inactive)
24,Cc1nc([N+](=O)[O-])c(Br)n1CC(=O)c1ccc(Br)cc1,27% (inactive)

row,SMILES,inhibition
1,CC(C)c1nnc(NC(=O)CCC(=O)N2CCN(C3CCCCC3)CC2)s1,2.9% (inactive)
2,Cc1nc2ccccc2n1CCCOc1ccccc1,-0.7% (inactive)
3,COc1ccc(C(c2sc3ncnn3c2O)N2CC(C)OC(C)C2)cc1OC (stereo not given),14.8% (inactive)
4,CSCCC(NC(=O)OCc1ccccc1)C(=O)O (stereo not given),6.7% (inactive)
5,CC(N)Cc1ccccc1Sc1ccc(O)cc1 (stereo not given),-14.6% (inactive)
6,C/C(=C\C(=O)c1cccnc1)Nc1ccc(C)c(C)c1,-15.6% (inactive)
7,O=C(CN1CCC(c2nc3ccccc3s2)CC1)NCc1cccs1,-3.1% (inactive)
8,O=C(NC(NC1CCS(=O)(=O)C1)C(=O)c1cccs1)c1ccccc1 (stereo not given),9.9% (inactive)
9,COc1cc2[nH]cc(C(=O)NCCc3ccccc3)c(=O)c2cc1OC,-5.6% (inactive)
10,COc1ccccc1C(=O)Nc1ccc2c(c1)nc(CN1CCN(C(C)=O)CC1)n2C,0.2% (inactive)
11,Cc1cccc(NC(=O)CC2SC(=O)N(c3ccccc3)C2=O)c1 (stereo not given),3.9% (inactive)
12,N#CCc1nc2c3c4c(sc3ncn2n1)CCCC4,62.9% (inactive)
13,Cc1ccc(F)cc1NC(=O)c1ccc2c(c1)OCO2,-22.8% (inactive)
14,O=S(=O)(c1cccs1)N1CCN(CC(O)COc2cccc(Br)c2)CC1 (stereo not given),4.8% (inactive)
15,Cc1ccc(OCc2ccoc2C(=O)O)cc1C,2.2% (inactive)
16,Cc1cccc(C(=O)Oc2ccccc2C2C[C@]3(C)CC(=O)NC3N2C(=O)c2cccc(C)c2)c1 (stereo not given in full),-2.5% (inactive)
17,Nc1nc2c3ccccc3nc(Cc3ccccc3)n2n1,-8.7% (inactive)
18,CN(C)c1nc(N(C)C)nc(N(C#N)CCOc2ccccc2)n1,-3.1% (inactive)
19,O=C(CC(c1ccccc1)c1ccccc1)NCC1CCCO1 (stereo not given),-7.2% (inactive)
20,CCCn1nc([N+](=O)[O-])c(C(C#N)c2nc3ccccc3s2)c(Cl)c1=O (stereo not given),18.2% (inactive)
21,CCNCC(O)COCC(O)CNCC (stereo not given),1.3% (inactive)
22,CCOC(=O)N1CCN(C(=O)COc2ccc(Cl)cc2C)CC1,5.2% (inactive)
23,CCOc1ccc(C2/C(=C(\O)c3c(C)[nH]c(C(=O)OC)c3C)C(=O)C(=O)N2CCN(C)C)cc1 (stereo not given),-5.6% (inactive)
24,CC1CCCN(c2nc3ccsc3c(=O)s2)C1 (stereo not given),-1.5% (inactive)

row,SMILES,inhibition
1,CC/C(=N\NC(=O)CNC(=O)/C=C/c1ccco1)c1ccccc1,-3.4% (inactive)
2,CC(=O)c1cccc(NC(=O)c2cc(-c3ccc(F)cc3)on2)c1,-10.4% (inactive)
3,CCOC(=O)N1CCN(C(=O)c2ccc3c(c2)NC(=O)C(N2CCOCC2)S3)CC1 (stereo not given),2.1% (inactive)
4,CCCOC(=O)CSC1=C(C#N)C(c2ccccc2OC)C(C#N)C(=O)N1 (stereo not given),-11.7% (inactive)
5,Cc1ccc(-c2nc(NC(=O)c3nn(C)cc3[N+](=O)[O-])sc2C)cc1,91.2% (inactive)
6,NC(=O)COC(=O)CCCc1c[nH]c2ccccc12,0.5% (inactive)
7,C[n+]1ccc(/C=C/c2ccc(Br)cc2)cc1,13.1% (inactive)
8,Cc1cc(NC(=O)C2C3C=CC(C3)C2C(=O)O)no1 (stereo not given),-1.8% (inactive)
9,CCCc1sc(N/N=C/c2ccccn2)nc1-c1ccc(Br)cc1,7.8% (inactive)
10,COc1ccc(CN2CCCCC2C(=O)Nc2ccc(OC)c(OCC(C)C)c2)cc1OC (stereo not given),-5.8% (inactive)
11,Cc1ccc(NC(=O)c2oc3c(c2C)C(=O)CC(C)(C)C3)cc1,-0.4% (inactive)
12,Cc1ccccc1-c1nc(CN2CCC(C(=O)NCCCN3CC(C)CC(C)C3)CC2)c(C)o1 (stereo not given),21.3% (inactive)
13,CCOc1cc(NC(=O)c2ccco2)c(OCC)cc1NC(=O)CCC(=O)NCc1cccnc1,3.7% (inactive)
14,N/C(Cc1cccs1)=N\OC(=O)COc1ccc(Br)cc1Cl,8.2% (inactive)
15,CCCNS(=O)(=O)c1ccc2c(c1)CCCN2C(C)=O,-18.5% (inactive)
16,CCOC(=O)N1CCC(NC(=O)c2ccc(CS(=O)(=O)c3ccc(OC)cc3)o2)CC1,-7.8% (inactive)
17,CC(NC(=O)COC(=O)Cc1ccsc1)C1CC2CCC1C2 (stereo not given),3.4% (inactive)
18,CN1CCc2nc3sc(C#N)c(N)c3c(-c3cccs3)c2C1,-13.9% (inactive)
19,Cc1ccc(Nc2nc(CSc3nnnn3C)cs2)cc1,-5.5% (inactive)
20,CN(Cc1ccccc1)S(=O)(=O)c1ccc(NC(=S)NC(=O)C2CCCC2)cc1,17.2% (inactive)
21,CC1CCN(C(=O)C2c3ccccc3C(=O)N3CCc4ccccc4C23)CC1 (stereo not given),3.6% (inactive)
22,COc1ccc(-c2cc(=O)[nH]c(NCc3ccccc3)n2)cc1,15.6% (inactive)

# Same assay, conditions: TNFa-stimulated cells, VCAM1 expression imaging; cell count; at 10 µM; stronger effect = lower value
row,SMILES,cell count [%]
1,Cc1ccc(C)c(NC(=S)NC(NC(=O)Cc2cccc3ccccc23)C(Cl)(Cl)Cl)c1 (stereo not given),99.3
2,O=C(COc1ccccc1-c1ccccc1)N/N=C/c1cccc2ccccc12,87.5
3,Cc1nc([N+](=O)[O-])c(Br)n1CC(=O)c1ccc(Br)cc1,116
4,N#CCc1nc2c3c4c(sc3ncn2n1)CCCC4,87.3
5,Cc1ccc(-c2nc(NC(=O)c3nn(C)cc3[N+](=O)[O-])sc2C)cc1,113
